≈ marks a conversion by molar mass, not a printed value.
Columns and labels:
SARS-CoV-2 = assay: microbe, parasite or virus in culture; assay type: cell-based; details: Severe acute respiratory syndrome coronavirus 2, Vero C1008, read-out: SARS-CoV-2 CPE reduction assay pEC50 (converted)
[1] = molecular target: mouse cathepsin L (mCTSL) (Mus musculus, UniProt P06797); assay: mCTSL biochemical assay; details: read-out: pIC50 (mouse CTSL) (converted)
[2] = 3 h, 2 µM
[3] = molecular target: mouse cathepsin B (mCTSB) (Mus musculus, UniProt P10605); assay: mCTSB biochemical assay; details: read-out: pIC50 (mouse CTSB) (converted)
physchem [4] = details: pH 7.4
[5] = molecular target: human cathepsin B (hCTSB) (Homo sapiens, UniProt P07858); assay: hCTSB biochemical assay
SARS-CoV-2 M^pro = SARS-CoV-2 M^pro (Severe acute respiratory syndrome coronavirus 2, UniProt P0DTD1); assay: biochemical; assay type: biochemical; details: for IC50: read-out: M^pro biochemical assay pIC50 (converted)
[6] = tested on: luciferase-expressing VSV (ΔG) pseudotyped with Spike from SARS-CoV-2; assay: microbe, parasite or virus in culture; assay type: cell-based; details: Vesicular stomatitis virus, Vero C1008, read-out: Entry reporter assay pEC50 (converted)
in vitro [7] = details: mouse, plasma, mouse plasma protein binding
in vitro [8] = details: African green monkey
[9] = molecular target: T1, human cathepsin L (hCTSL) (Homo sapiens, UniProt P07711); assay: hCTSL biochemical assay
T1 construct: purchased R&D Systems

in vitro [10] = details: mouse, hepatocytes
thrombin = molecular target: T2, thrombin (Homo sapiens, UniProt P00734); assay: Protease panel: thrombin; assay type: biochemical
T2 construct: preincubated with thrombin (10 nM, Sigma); purchased Sigma-Aldrich

trypsin = assay: Protease panel: trypsin
physchem [11] = details: pH 7.4; remark: listed apart in the source
hamster CTSL = hamster CTSL (Mesocricetus auratus, UniProt Q812A7); assay: hamster CTSL biochemical assay
[12] = Mouse hepatocyte stability; details: mouse, cryopreserved hepatocytes
in vitro [13] = details: hamster, microsomes, pH 7.4
[14] = Hamster hepatocyte stability; details: cryopreserved hepatocytes, t1/2 (hamster hepatocytes), without ritonavir
in vitro [15] = details: hamster, hepatocytes; for hepatocyte CLint at 2 h, 4 µM: CLint (hamster hepatocytes + ritonavir 4:1); for hepatocyte CLint at 2 h, 2 µM: CLint (hamster hepatocytes); for half-life at 2 h, 4 µM: t1/2 (hamster hepatocytes + ritonavir 4:1)
[16] = Hamster liver microsomal stability; details: microsomes, pH 7.4
[17] = Mouse liver microsomal stability; details: microsomes, pH 7.4
in vitro [18] = details: mouse, microsomes, pH 7.4
[19] = CLint (mouse hepatocytes + ritonavir 4:1)
[20] = % remaining at 120 min (hamster hepatocytes, compound/ritonavir 1:1)
[21] = % remaining at 120 min (hamster hepatocytes, compound/ritonavir 2:1)
[22] = CLint (hamster hepatocytes, compound/ritonavir 1:1)
[23] = CLint (hamster hepatocytes, compound/ritonavir 2:1)
[24] = t1/2 (hamster hepatocytes, compound/ritonavir 1:1)
[25] = t1/2 (hamster hepatocytes, compound/ritonavir 2:1)

mouse cathepsin L (mCTSL), sequence (P06797 114-334): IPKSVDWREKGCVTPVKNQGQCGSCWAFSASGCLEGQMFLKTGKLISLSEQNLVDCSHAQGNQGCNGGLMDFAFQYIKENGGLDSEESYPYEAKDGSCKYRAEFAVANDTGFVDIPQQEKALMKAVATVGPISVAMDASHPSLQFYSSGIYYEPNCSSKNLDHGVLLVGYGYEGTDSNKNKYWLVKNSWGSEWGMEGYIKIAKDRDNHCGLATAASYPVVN
mouse cathepsin B (mCTSB), sequence (P10605 80-339): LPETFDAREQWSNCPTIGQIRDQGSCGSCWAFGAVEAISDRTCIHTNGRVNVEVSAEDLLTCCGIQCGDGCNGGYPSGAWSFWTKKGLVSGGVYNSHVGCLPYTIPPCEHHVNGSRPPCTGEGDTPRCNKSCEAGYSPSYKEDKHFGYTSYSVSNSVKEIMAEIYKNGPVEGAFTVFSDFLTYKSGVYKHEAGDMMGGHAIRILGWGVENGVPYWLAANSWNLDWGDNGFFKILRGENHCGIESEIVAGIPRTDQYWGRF
T1 sequence (P07711 114-333): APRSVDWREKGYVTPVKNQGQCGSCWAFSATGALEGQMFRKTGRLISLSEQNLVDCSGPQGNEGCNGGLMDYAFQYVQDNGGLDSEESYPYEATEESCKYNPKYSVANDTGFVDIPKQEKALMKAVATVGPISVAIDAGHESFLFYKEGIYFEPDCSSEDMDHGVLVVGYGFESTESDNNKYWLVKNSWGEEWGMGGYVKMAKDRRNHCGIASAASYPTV
hamster CTSL, sequence (Q812A7 entry or part of it): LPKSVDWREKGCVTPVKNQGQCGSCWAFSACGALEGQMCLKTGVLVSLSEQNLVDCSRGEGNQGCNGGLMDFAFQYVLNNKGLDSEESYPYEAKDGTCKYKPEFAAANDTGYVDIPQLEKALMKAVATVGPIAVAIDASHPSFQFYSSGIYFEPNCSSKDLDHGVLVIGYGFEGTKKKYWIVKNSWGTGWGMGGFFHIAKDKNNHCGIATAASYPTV

Compound	EC50 (SARS-CoV-2)	IC50 [1]	mouse plasma protein binding, fraction bound (Fb) [2]	IC50 [3]	logD at 1 h (physchem [4])	hCTSB biochemical assay pIC50 [5]	IC50 (SARS-CoV-2 M^pro)	EC50 [6]	fraction unbound at 3 h, 2 µM (in vitro [7]; fraction bound (Fb))	fraction unbound at 3 h, 2 µM (in vitro [7]; fraction unbound (Fu))	CC50 (in vitro [8])	hCTSL biochemical assay pIC50 [9]	hepatocyte CLint at 2 h, 2 µM (in vitro [10]; CLint (mouse hepatocytes))	solubility kinetic at 24 h (physchem [11])	half-life at 1 µM [12]	microsomal CLint at 1 µM (in vitro [13])	remaining at 1 h, 1 µM (in vitro [13])	half-life at 2 h, 2 µM [14]	hepatocyte CLint at 1 µM (in vitro [10]; [19])	remaining at 2 h, 1 µM (in vitro [15]; [20])	further results
O=C(N[C@@H](Cc1c[nH]c2ccccc12)C(=O)N[C@@H](C[C@@H]1CCNC1=O)C(=O)COc1c(F)c(F)c(CO)c(F)c1F)c1cc2ccccc2[nH]1 [compound 5, N-((S)-3-(1H-Indol-3-yl)-1-oxo-1-(((S)-3-oxo-1-((S)-2-oxopyrrolidin-3-yl)-4-(2,3,5,6-tetrafluoro-4-(hydroxymethyl)phenoxy)butan-2-yl)amino)propan-2-yl)-1H-indole-2-carboxamide]	1.17 µM	0.224 µM	98.79%	0.0123 µM	1.5	6.54	0.0417 µM	5.75 µM	0.0121	0.0121	> 10 µM	7.64	182 µL/min/1e6 cells	–	–	–	–	–	–	–	–
CC(C)(C)[C@H](NC(=O)C(F)(F)F)C(=O)N1C[C@H]2[C@@H]([C@H]1C(=O)N[C@@H](C[C@@H]1CCNC1=O)C(=O)COc1c(F)c(F)c(CO)c(F)c1F)C2(C)C [compound 7, (1R,2S,5S)-3-((S)-3,3-Dimethyl-2-(2,2,2-trifluoroacetamido)butanoyl)-6,6-dimethyl-N-((S)-3-oxo-1-((S)-2-oxopyrrolidin-3-yl)-4-(2,3,5,6-tetrafluoro-4-(hydroxymethyl)phenoxy)butan-2-yl)-3-azabicyclo[3.1.0]hexane-2-carboxamide]	0.0501 µM	35.5 µM	96.45%	1.86 µM	2.82	4.82	–	–	0.0355	0.0355	> 0.501 µM	< 4.30	–	71.3 µM (≈ 50.7 µg/mL)	14.3 min	803 µL/min/mg	0.15%	13.8 min	21.8 µL/min/1e6 cells	20.8%	inhibition at 10 µM (thrombin): 0.4 ± 0.9%; Trypsin inhibition at 10 μM (trypsin): 9.9 ± 6.6%; hCTSB activity (in words) ([5]; biochemical assay): no hCTSL and hCTSB activity was observed; pIC50 (hamster CTSL) (hamster CTSL): 5.07 ± 0.10; hCTSL activity (in words) ([9]; biochemical assay): no hCTSL and hCTSB activity was observed; hepatocyte CLint at 1 µM (in vitro [10]; CLint (mouse hepatocytes)): 121 µL/min/1e6 cells; remaining at 2 h, 1 µM (in vitro [15]; [21]): 3.47%; hepatocyte CLint at 2 h, 4 µM (in vitro [15]): 41.9 µL/min/1e6 cells; hepatocyte CLint at 2 h, 2 µM (in vitro [15]): 50.2 µL/min/1e6 cells; hepatocyte CLint at 1 µM (in vitro [15]; [22]): 12.5 µL/min/1e6 cells; hepatocyte CLint at 1 µM (in vitro [15]; [23]): 27.4 µL/min/1e6 cells; half-life at 2 h, 4 µM (in vitro [15]): 16.6 min; half-life at 1 µM (in vitro [15]; [24]): 55.5 min; half-life at 1 µM (in vitro [15]; [25]): 25.3 min; half-life at 1 µM [16]: 1.73 min
COc1cccc2[nH]c(C(=O)N[C@@H](Cc3cccc(F)c3)C(=O)N[C@@H](C[C@@H]3CCNC3=O)C(=O)COc3c(F)c(F)c(C(C)(C)O)c(F)c3F)cc12 [compound 10, N-((S)-3-(3-Fluorophenyl)-1-oxo-1-(((S)-3-oxo-1-((S)-2-oxopyrrolidin-3-yl)-4-(2,3,5,6-tetrafluoro-4-(2-hydroxypropan-2-yl)phenoxy)butan-2-yl)amino)propan-2-yl)-4-methoxy-1H-indole-2-carboxamide]	0.12 µM	0.933 µM	98.95%	–	3.15	5.94	0.00708 µM	2.04 µM	0.0105	0.0105	> 1.26 µM	6.95	47.6 µL/min/1e6 cells	3.65 µM (≈ 2.67 µg/mL)	36.4 min	500 µL/min/mg	0%	25.2 min	–	11.6%	remaining at 2 h, 1 µM (in vitro [15]; [21]): 2.17%; hepatocyte CLint at 2 h, 4 µM (in vitro [15]): 19.4 µL/min/1e6 cells; hepatocyte CLint at 2 h, 2 µM (in vitro [15]): 27.5 µL/min/1e6 cells; hepatocyte CLint at 1 µM (in vitro [15]; [22]): 16.4 µL/min/1e6 cells; hepatocyte CLint at 1 µM (in vitro [15]; [23]): 30.7 µL/min/1e6 cells; half-life at 2 h, 4 µM (in vitro [15]): 35.7 min; half-life at 1 µM (in vitro [15]; [24]): 42.2 min; half-life at 1 µM (in vitro [15]; [25]): 22.6 min; half-life at 1 µM [17]: 1.9 min; half-life at 1 µM [16]: 2.77 min; microsomal CLint at 1 µM (in vitro [18]): 780 µL/min/mg; remaining at 1 h, 1 µM (in vitro [18]): 0%
COc1cccc2[nH]c(C(=O)N[C@@H](Cc3cccc(F)c3)C(=O)N[C@@H](CCn3cn[nH]c3=O)C(=O)COc3c(F)c(F)c(C(C)(C)O)c(F)c3F)cc12 [compound 13, N-((S)-3-(3-Fluorophenyl)-1-oxo-1-(((S)-2-oxo-5-(5-oxo-1,5-dihydro-4H-1,2,4-triazol-4-yl)-1-(2,3,5,6-tetrafluoro-4-(2-hydroxypropan-2-yl)phenoxy)pentan-3-yl)amino)propan-2-yl)-4-methoxy-1H-indole-2-carboxamide]	1.66 µM	0.0234 µM	–	< 0.00692 µM	2.7	6.68	0.295 µM	–	–	–	> 10 µM	8.71	78.8 µL/min/1e6 cells	6.78 µM (≈ 5.05 µg/mL)	22 min	–	–	–	49.3 µL/min/1e6 cells	–	fraction unbound at 3 h, 800 µM (in vitro [7]; fraction bound (Fb)): 0.0031; fraction unbound at 3 h, 800 µM (in vitro [7]; fraction unbound (Fu)): 0.0028
COc1cccc2[nH]c(C(=O)N[C@@H](Cc3cccc(F)c3)C(=O)N[C@@H](C[C@@H]3CCNC3=O)C(=O)COc3c(F)c(F)c(F)c(F)c3F)cc12 [compound 16, reference compound]	0.0398 µM	0.55 µM	99.33%	–	2.95	5.82	0.00676 µM	0.676 µM	0.0067	0.0067	> 0.251 µM	6.98	154 µL/min/1e6 cells	4.09 µM (≈ 2.82 µg/mL)	–	–	–	–	–	–	selectivity for M^pro over hCTSL (SARS-CoV-2 M^pro): ~16 fold

From publication PMC12169608, “Peptidomimetic Phenoxymethyl Ketone Warheads as Potent Dual-Mode Inhibitors against SARS-CoV‑2 M^pro and Cathepsin” (Journal of Medicinal Chemistry, 2025)
